Measured values: the supplement of paper PMC7017272
± gives the standard deviation of the averaged measurements.

Legend:
Settings in all cases: treatment time: 3 days
[1] = tested on: UT-SCC-8; assay: drug sensitivity score (DSS); higher = more sensitive; extreme values may be limits of the assay
Summary of the method: (§1)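 HPV-negative HNSCC cell lines were plated at 500 cells/well in 384-well plates, either on plastic, on wells coated with Matrigel or Myogel (500 µg/mL), or embedded in Matrigel or Myogel plus rat collagen I. Each compound was tested at five 10-fold concentrations over 3 days. Viability was measured by CellTiter-Glo 2.0 luminescence, and IC50, maximal inhibition and drug sensitivity score came from percent-inhibition dose–response curves fitted in the FIMM pipeline after normalisation to vehicle (0.1% DMSO) and cell-killing control wells.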

[2] = tested on: UT-SCC-24B; assay: as above
Summary of the method: as §1

[3] = tested on: UT-SCC-42B; assay: as above
Summary of the method: as §1

[4] = tested on: UT-SCC-73; assay: as above
Summary of the method: as §1

[5] = tested on: UT-SCC-81; assay: as above
Summary of the method: as §1

[6] = tested on: UT-SCC-40; assay: as above
Summary of the method: as §1

[7] = tested on: UT-SCC-106A; assay: as above
Summary of the method: as §1

[8] = tested on: UT-SCC-44; assay: as above
Summary of the method: as §1

[9] = tested on: UT-SCC-42A; assay: as above
Summary of the method: as §1

[10] = tested on: UT-SCC-28; assay: as above
Summary of the method: as §1

[11] = tested on: UT-SCC-14; assay: as above
Summary of the method: as §1

[12] = tested on: UT-SCC-24A; assay: relative IC50 (midpoint of the fitted curve; maximal inhibition may be below 50%); higher = less potent
Experimental: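 HNSCC cell lines (500 cells/well, 384-well) were cultured on plastic, on top of (2D) or embedded (3D) in Matrigel or human leiomyoma matrix Myogel (500 ug/mL; Myogel 3D mixed with rat collagen I). Cells were treated for 3 days with 5 ten-fold concentrations of each drug, and viability was read by CellTiter-Glo. Viability was normalised to DMSO (0% inhibition) and 100 uM benzethonium chloride (100% inhibition) controls and fitted with the FIMM DSRT pipeline to give IC50 (nM), maximal % inhibition and the drug sensitivity score (DSS). Suffixes _1/_2/_3 on drug names are replicates.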

[13] = tested on: UT-SCC-42B; assay: relative IC50 (midpoint of the fitted curve; maximal inhibition may be below 50%); higher = less potent
Summary of the method: as §1

[14] = tested on: UT-SCC-73; assay: as above
Summary of the method: as §1

[15] = tested on: UT-SCC-81; assay: as above
Summary of the method: as §1

[16] = tested on: UT-SCC-44; assay: as above
Summary of the method: as §1

[17] = tested on: UT-SCC-42A; assay: as above
Summary of the method: as §1

[18] = tested on: UT-SCC-14; assay: as above
Summary of the method: as §1

[19] = culture condition: embedded in Matrigel
[20] = culture condition: embedded in Myogel + collagen I
[21] = culture condition: on top of Matrigel
[22] = culture condition: on top of Myogel
[23] = culture condition: plastic 2D (no matrix)

Cn1c(=O)n(-c2ccc(C(C)(C)C#N)cc2)c2c3cc(-c4cnc5ccccc5c4)ccc3ncc21 [Dactolisib]
drug sensitivity score [1, 19]: 0 DSS
drug sensitivity score [1, 20]: 0.6 ± 0.66 DSS
drug sensitivity score [1, 21]: 0 DSS
drug sensitivity score [1, 22]: 0.133 ± 0.15 DSS
drug sensitivity score [1, 23]: 0 DSS
drug sensitivity score [2, 19]: 11.6 ± 0.64 DSS
drug sensitivity score [2, 20]: 16.3 ± 0.52 DSS
drug sensitivity score [2, 21]: 13.4 ± 0.46 DSS
drug sensitivity score [2, 22]: 13.6 ± 0.51 DSS
drug sensitivity score [2, 23]: 12.8 ± 0.25 DSS
drug sensitivity score [3, 19]: 0 DSS
drug sensitivity score [3, 21]: 0 DSS
drug sensitivity score [3, 22]: 0 DSS
drug sensitivity score [3, 23]: 0 DSS
drug sensitivity score [4, 19]: 0 DSS
drug sensitivity score [4, 20]: 0 DSS
drug sensitivity score [4, 21]: 0 DSS
drug sensitivity score [4, 22]: 0 DSS
drug sensitivity score [4, 23]: 0 DSS
drug sensitivity score [5, 19]: 3.7 ± 3.4 DSS
drug sensitivity score [5, 20]: 0 DSS
drug sensitivity score [5, 21]: 0 DSS
drug sensitivity score [5, 22]: 0 DSS
drug sensitivity score [5, 23]: 0 DSS
drug sensitivity score [6, 19]: 0.5 ± 0.87 DSS
drug sensitivity score [6, 20]: 0 DSS
drug sensitivity score [6, 21]: 0 DSS
drug sensitivity score [6, 22]: 0 DSS
drug sensitivity score [6, 23]: 0 DSS
drug sensitivity score [7, 19]: 0 DSS
drug sensitivity score [7, 20]: 0 DSS
drug sensitivity score [7, 21]: 0 DSS
drug sensitivity score [7, 22]: 0 DSS
drug sensitivity score [7, 23]: 0.0333 ± 0.058 DSS
drug sensitivity score [8, 19]: 0 DSS
drug sensitivity score [8, 20]: 0 DSS
drug sensitivity score [8, 21]: 0 DSS
drug sensitivity score [8, 22]: 0 DSS
drug sensitivity score [8, 23]: 0.9 ± 1.6 DSS
drug sensitivity score [9, 19]: 0 DSS
drug sensitivity score [9, 20]: 0 DSS
drug sensitivity score [9, 21]: 0 DSS
drug sensitivity score [9, 22]: 0 DSS
drug sensitivity score [9, 23]: 0 DSS
drug sensitivity score [10, 19]: 0 DSS
drug sensitivity score [10, 20]: 0.133 ± 0.23 DSS
drug sensitivity score [10, 21]: 0.1 ± 0.17 DSS
drug sensitivity score [10, 23]: 0 DSS
drug sensitivity score [11, 19]: 3.03 ± 5.2 DSS
drug sensitivity score [11, 20]: 0 DSS
drug sensitivity score [11, 21]: 0 DSS
drug sensitivity score [11, 22]: 0 DSS
drug sensitivity score [11, 23]: 0.3 ± 0.52 DSS
relative IC50 [12, 21]: > 989 nM
relative IC50 [12, 22]: > 989 nM
relative IC50 [12, 23]: > 989 nM
relative IC50 [13, 19]: > 989 nM
relative IC50 [13, 21]: > 989 nM
relative IC50 [13, 22]: > 989 nM
relative IC50 [13, 23]: > 989 nM
relative IC50 [14, 20]: > 989 nM
relative IC50 [14, 22]: > 989 nM
relative IC50 [14, 23]: > 989 nM
relative IC50 [15, 20]: > 989 nM
relative IC50 [15, 22]: > 989 nM
relative IC50 [15, 23]: > 989 nM
relative IC50 [16, 19]: > 989 nM
relative IC50 [16, 20]: > 989 nM
relative IC50 [17, 19]: > 989 nM
relative IC50 [17, 20]: > 989 nM
relative IC50 [17, 21]: > 989 nM
relative IC50 [17, 22]: > 989 nM
relative IC50 [17, 23]: > 989 nM
relative IC50 [18, 20]: > 989 nM
relative IC50 [18, 22]: > 989 nM

C#Cc1cccc(Nc2ncnc3cc(OCCOC)c(OCCOC)cc23)c1 [Erlotinib]
drug sensitivity score [1, 19]: 7.57 ± 0.46 DSS
drug sensitivity score [1, 20]: 0 DSS
drug sensitivity score [1, 21]: 5.63 ± 0.65 DSS
drug sensitivity score [1, 22]: 3.4 ± 2.5 DSS
drug sensitivity score [1, 23]: 4.2 ± 1.1 DSS
drug sensitivity score [2, 19]: 11.3 ± 1 DSS
drug sensitivity score [2, 20]: 8.03 ± 3 DSS
drug sensitivity score [2, 21]: 10.4 ± 0.51 DSS
drug sensitivity score [2, 22]: 3.97 ± 0.21 DSS
drug sensitivity score [2, 23]: 15.2 ± 1.4 DSS
drug sensitivity score [3, 19]: 2.4 ± 1.4 DSS
drug sensitivity score [3, 21]: 1 ± 1.7 DSS
drug sensitivity score [3, 22]: 0 DSS
drug sensitivity score [3, 23]: 0 DSS
drug sensitivity score [4, 19]: 0.3 ± 0.3 DSS
drug sensitivity score [4, 20]: 1.17 ± 2 DSS
drug sensitivity score [4, 21]: 0 DSS
drug sensitivity score [4, 22]: 0.233 ± 0.4 DSS
drug sensitivity score [4, 23]: 0 DSS
drug sensitivity score [5, 19]: 10.4 ± 3.8 DSS
drug sensitivity score [5, 20]: 0 DSS
drug sensitivity score [5, 21]: 5.17 ± 2.1 DSS
drug sensitivity score [5, 22]: 0 DSS
drug sensitivity score [5, 23]: 0.2 ± 0.27 DSS
drug sensitivity score [6, 19]: 0.333 ± 0.31 DSS
drug sensitivity score [6, 20]: 1.97 ± 3.4 DSS
drug sensitivity score [6, 21]: 0 DSS
drug sensitivity score [6, 22]: 0 DSS
drug sensitivity score [6, 23]: 0.0333 ± 0.058 DSS
drug sensitivity score [7, 19]: 1.43 ± 0.8 DSS
drug sensitivity score [7, 20]: 0 DSS
drug sensitivity score [7, 21]: 1.53 ± 2.1 DSS
drug sensitivity score [7, 22]: 0 DSS
drug sensitivity score [7, 23]: 1.97 ± 1.7 DSS
drug sensitivity score [8, 19]: 0 DSS
drug sensitivity score [8, 20]: 0.133 ± 0.23 DSS
drug sensitivity score [8, 21]: 0 DSS
drug sensitivity score [8, 22]: 0.0667 ± 0.12 DSS
drug sensitivity score [8, 23]: 0.0667 ± 0.12 DSS
drug sensitivity score [9, 19]: 1.47 ± 2 DSS
drug sensitivity score [9, 20]: 0 DSS
drug sensitivity score [9, 21]: 2.73 ± 2.8 DSS
drug sensitivity score [9, 22]: 0.1 ± 0.1 DSS
drug sensitivity score [9, 23]: 1.73 ± 1.5 DSS
drug sensitivity score [10, 19]: 0 DSS
drug sensitivity score [10, 20]: 1.27 ± 2.2 DSS
drug sensitivity score [10, 21]: 0 DSS
drug sensitivity score [10, 23]: 0 DSS
drug sensitivity score [11, 19]: 1.73 ± 0.57 DSS
drug sensitivity score [11, 20]: 0.0333 ± 0.058 DSS
drug sensitivity score [11, 21]: 0.4 ± 0.69 DSS
drug sensitivity score [11, 22]: 0.733 ± 1.3 DSS
drug sensitivity score [11, 23]: 0.9 ± 1.6 DSS
relative IC50 [12, 20]: 1560 nM
relative IC50 [12, 21]: 860 nM
relative IC50 [12, 22]: > 9890 nM
relative IC50 [12, 23]: 855 nM
relative IC50 [13, 19]: 2110 nM
relative IC50 [13, 22]: > 9890 nM
relative IC50 [13, 23]: > 9890 nM
relative IC50 [14, 23]: > 9890 nM
relative IC50 [15, 20]: > 9890 nM
relative IC50 [16, 19]: > 9890 nM
relative IC50 [16, 21]: > 9890 nM
